Data taken from US12331051B2 (priority 2021, dated 2025).

Assays:
C57BL/6J mice = assay: Chronic variable stress (CVS) mouse model, open field test and splash test; assay type: in vivo; settings: for CVS induced decrease of time in center of open field: female mice
Protocol: The “polymorph HT compound” (from Example 1) was tested for its anti-depression/anxiety activity in the chronic variable stress (CVS) mouse model as assessed by a self-grooming splash test and an open field test (OFT) [Strekalova et al., Psychopharmacology (Berl). 2022, 239(3):663-693; Willner, P. Neurobiol Stress, 2017, 6:78-93]. In brief, C57BL/6J mice were subjected to a CVS protocol, consisting of 2 stressors per day for 35 days. Naive mice (not exposed to CVS) are used as a control for CVS-induced depression activity. Following the 35 days CVS, mice were treated with the “E559 polymorph” (FIG. 23) via intraperitoneal injection (IP) as follows: single dose after the last day of CVS (3 mg/kg) or 4 doses (1 mg/kg) applied every 48 hours starting on day 28 of CVS. Saline was used as the vehicle control. The splash test and OFT were performed as previously described in (Aguilar-Valles et al., Nature, 2021, 590, p315-319). […] FIG. 23B represents distance travelled in the open field by female mice treated with E559 polymorph. FIG. 23C represents time spend in the center of the open field of mice in FIG. 23B. […] Horizontal lines represent the mean±standard error of the mean (S.E.M.) and asterisks indicate statistical significances.

DOI induced HTR in mice = assay: Blockade of DOI-induced HTR; assay type: in vivo, mouse; settings: 10 min before DOI 1 mg/kg
Protocol: The “E559 polymorph” was studied for its effect to block the hallucinogenic (HTR) response of a psychedelic 2,5-Dimethoxy-4-iodoamphetamine (DOI) in the mouse HTR model. DOI is a serotonergic hallucinogenic compound used commonly as a positive control in HTR model [Halberstadt et al., Psychopharmacology (Berl). 2013 June; 227(4):727-39]. An HTR study was performed as described in Example 2 as follows: Five groups of mice (n=6-7 per group, 31 total) were either treated with vehicle (saline) or with the “E559 polymorph” at 0.1, 0.3, 1, or 3 mg/kg. Ten minutes later, all of the mice were injected with DOI (1 mg/kg) and then HTR activity was assessed for 30 min. […] All doses of the “E559 polymorph” were effective in blocking the response to DOI in a dose-dependent manner. The data are represented as group means±standard deviation and asterisks indicate statistical significances (*p<0.0001) compared to the vehicle (saline) control (0 mg/kg in FIG. 13A).
The time course of the blockade of the DOI induced HTR by the “E559 polymorph” was examined. An HTR study was performed as described in Example 2 as follows: Two groups of mice (n=6 per group) were either treated with vehicle or with the “E559 polymorph” at 1 mg/kg. Ten minutes later, all of the mice were injected with DOI (1 mg/kg) and then HTR activity was assessed for 30 min. […] The data are represented as group means±standard deviation and asterisks indicate statistical significances (*p<0.0001) compared to the vehicle (saline) control (0 mg/kg in FIG. 13B). The time course of the blockade of the DOI induced HTR by the “E559 polymorph” mirrors the time course of the pharmacokinetics of the “E559 polymorph” in the mouse brain tissue (shown in Example 3).

stress naive mice = assay: Forced swim test (FST), stress naive mice; assay type: in vivo, mouse
Protocol: In brief, stress naive mice were treated (IP injection) with either saline (control) or single dose of the “E559 polymorph” at 0.3, 1, or 3 mg/kg dose levels and were evaluated 24 hours (OFT) and […] after treatment. The OFT was performed described in Example 13. The FST was performed as previously described in (Aguilar-Valles et al., Nature, 2021, 590, p315-319). Briefly FST was performed 24-hour post treatment by placing the mice (one by one) in a 4-liter wide-mouthed flask of 35° C. water. Mice activities were recorded for 6 minutes and assessed for total time the animal remains immobile, a sign of depressive-like behavior. FIG. 25A depicts the study design where female/male mice (n=10/group/sex) were treated by IP injection with the “E559 polymorph” or vehicle (saline) followed by open field and force swim test 24 hours post treatment. FIGS. 25B and 25E represent the total distance travelled in the open field test 24 hours after vehicle or the “E559 polymorph” in female and male mice, respectively. FIGS. 25C and 25F represent the time in the center of the open field by female and male mice, respectively. FIGS. 25D and 25G represent the immobility time during the last 4 minutes of the forced swim test in female and male mice, respectively. Horizontal lines represent the mean±standard error of the mean (S.E.M.) and asterisks indicate statistical significances.

[1] = tested on: primary rat embryonic cortical neurons; assay: In vitro dendritogenesis and spinogenesis assays, Sholl analysis; assay type: cell-based
Protocol: The ability of the “E559 polymorph” to induce neural plasticity was evaluated in vitro. In vitro dendritogenesis and spinogenesis assays were conducted using primary rat embryonic cortical neurons. Briefly, cultured primary cortical neurons (rat) were treated at day in vitro (DIV) 3 for 3 hours with increasing concentrations (1, 10 and 100 nM, 1 and […]) of the “E559 polymorph” and morphological changes in dendritic arbor complexity (dendritogenesis) were assessed at DIV6 by immunofluorescent staining of fixed neurons with microtubule-associated protein 2 (MAP2, a microtubule marker), F-actin (cytoskeletal marker), and phalloidin (actin filament marker) followed by fluorescent microscopy and Sholl analysis of neurons' images. […] The spine density assessments (spinogenesis) were made on DIV 18. The cell viability assessments were made on DIV 6 by using the Neurite Outgrowth Staining Kit which includes fluorescent probes for dead and live neuronal cells. Ketamine was used as a comparator and positive control. Ketamine is known to induce dendritogenesis and its effects on synaptic plasticity are believed to mediate its antidepressant effects (Aguilar-Valles et al., Nature, 2021, 590, p315-319). Representative images of MAP2 stained rat cortical neurons treated with vehicle (no drug control) or with “E559 polymorph” is shown in FIG. 18A.
Horizontal lines in all figure panels represent the means±standard error of the mean (S.E.M.).

CCN(CC)C(=O)[C@@H]1C=C2c3cccc4[nH]c(Br)c(c34)C[C@H]2N(C)C1 [E559, (5R, 8R)-2-Bromo-9,10-didehydro-N,N-diethyl-6-methylergoline-8-carboxamide hemi-D-tartrate]
CVS effect on time in center in OFT, 28 days after the last treatment (C57BL/6J mice; 4×1 mg/kg): remained reversed
locomotion (total distance travelled) in open field, CVS mice (C57BL/6J mice; 4×1 mg/kg): without affecting locomotion
time spent self-grooming in the splash test (C57BL/6J mice; female CVS mice): partially reversed this CVS-induced effect
CVS induced decrease of time in center of open field (C57BL/6J mice; IP 4 doses of 1 mg/kg every 48 hours): fully reversed to the levels seen in the control
CVS induced decrease of time in center of open field (C57BL/6J mice; IP single dose of 3 mg/kg): partially restored the effect of CVS
blockade of DOI induced HTR, time course (DOI induced HTR in mice; 1 mg/kg): almost completely blocked the DOI induced HTR during the first 10 minutes
time after which blockage of DOI induced HTR was no longer detected (DOI induced HTR in mice; 1 mg/kg): 40 to 60 min
attenuation of DOI-induced HTR (DOI induced HTR in mice; 0.1, 0.3, 1 or 3 mg/kg): significantly attenuated the ability of DOI to induce the HTR in mice
decrease in immobility (stress naive mice; female mice, IP 1 mg/kg): 35.18 ± 10.03 s
decrease in immobility (stress naive mice; male mice, IP 1 mg/kg): 27.27 ± 8.226 s
decrease in immobility (stress naive mice; male mice, IP 3 mg/kg): 31.36 ± 8.226 s
lowest concentration at which increase in neuronal plasticity reached statistical significance ([1]; 3 hours treatment at DIV3): 1 µM
lowest concentration at which increase in neuronal plasticity was detectable ([1]; 3 hours treatment at DIV3): 1 nM
total length of the dendritic arbor ([1]; DIV6, 1 and 10 μM): total length of the dendritic arbor was also increased
total dendrites crossing the Sholl radii ([1]; DIV6, 1 and 10 μM significant vs control): significantly increased the number of total dendrites crossing the Sholl radii
spine density ([1]; DIV 18, 3-hour incubation at 1 and 10 μM): increased the spine density
